Experiments:
human LBAT = target: T1, human LBAT (Homo sapiens, UniProt Q14973); assay: LBAT (h/m) assay: 3H-taurocholic acid uptake in human LBAT-overexpressing cells; type: cell-based; conditions: 0.3 μM 3H-taurocholic acid and 7.5 μM cold taurocholic acid, 20 minutes, read-out: hLBAT IC50
T1 construct: expressed in transfected cells; kept under Geneticin selection
T1 sequence (Q14973 1-349): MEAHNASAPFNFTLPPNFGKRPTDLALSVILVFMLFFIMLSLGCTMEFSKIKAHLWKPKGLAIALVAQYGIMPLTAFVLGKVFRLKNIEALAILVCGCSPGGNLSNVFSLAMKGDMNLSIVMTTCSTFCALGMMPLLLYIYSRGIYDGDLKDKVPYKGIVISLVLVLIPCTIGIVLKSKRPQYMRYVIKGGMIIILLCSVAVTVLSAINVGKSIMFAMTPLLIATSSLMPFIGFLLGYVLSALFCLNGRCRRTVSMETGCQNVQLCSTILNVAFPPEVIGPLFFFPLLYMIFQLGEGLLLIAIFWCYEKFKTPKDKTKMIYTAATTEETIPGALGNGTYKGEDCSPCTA
Experimental: LBAT (h/m) Assay Protocol
20,000 cells (Human or Mouse LBAT-overexpressing cells) were seeded in 96-wells plate (Corning CLS3809) in 100 μL MEM-alpha medium (Gibco 12571-063) supplemented with 10% FBS (Gibco 10438026) containing Geneticin (Gibco 10131-027) (1 mg/mL) and incubated at 37° C. in 5% CO2 for 24 hours. After incubation, media was decanted from the wells and cells were washed two times with 300 μL of basal MEM-alpha medium (FBS-free). After decanting basal MEM-alpha medium each time, plates were tapped against paper towel to ensure maximum removal of residual media. For human LBAT, incubation mix was prepared by adding test inhibitor dilutions (3-fold serial dilution in DMSO (Sigma D2650), 10 points) in MEM-alpha (without FBS) containing 0.3 μM 3H-taurocholic acid (ARC ART-1368) and 7.5 μM cold taurocholic acid (Sigma T4009) (maintaining 0.2% final DMSO concentration). For mouse LBAT, incubation mix was prepared by adding test inhibitor dilutions (3-fold serial dilution in DMSO, 10 points) in MEM-alpha (without FBS) containing 0.3 μM 3H-taurocholic acid and 25 μM cold taurocholic acid maintaining 0.2% final DMSO concentration). 50 μL of incubation mix containing test inhibitors was then added to the wells (in duplicate) and the plates were incubated for 20 minutes in a CO2 incubator at 37° C. After incubation, the reaction was stopped by keeping the plates on ice water mix for 2-3 minutes and then the incubation mix was aspirated completely from the wells. The wells were washed two times with 250 μL of chilled unlabelled 1 mM taurocholic acid dissolved in HEPES (Gibco 15630080)-buffered (10 mM) HBSS (Gibco 14175079) (pH 7.4). The plates were tapped against a paper towel after every wash to ensure maximum removal of blocking buffer.
100 μL of MicroScint-20 (PerkinElmer 6013621) was added to the wells and kept overnight at room temperature before reading the plates in TopCount NXT™ Microplate Scintillation and Luminescence Counter from PerkinElmer under 3H Test protocol (set at 120 seconds reading time per well, with normal plate orientation).
(§1) Preparation of Test Compound Dilutions
(§2) All test compounds were provided in powder form at room temperature. 10 mM DMSO stocks of the test compounds were prepared, aliquoted and stored at −20° C. From the 10 mM DMSO stock of the compounds, a 3-fold serial dilution in DMSO was prepared to get a total of 10 dilutions of the test compounds. 0.5 μL of this dilution in DMSO was added to 250 μL of FBS-free basal media containing 3H-taurocholic acid and cold taurocholic acid to prepare the incubation mixture.

[1] = Bidirectional permeability assay (Caco-2 cells); type: in vitro ADME; conditions: human, FaSSIF donor buffer, 120 minutes at 37° C.; for Papp A→B at 120 min, 10 µM: Caco-2, pH 7.4, absorptive direction (A2B); for Papp B→A at 120 min, 10 µM: Caco-2, pH 7.4, secretory direction (B2A)
Text: Bidirectional Permeability Assay (Caco-2 Cells)
HepaRG-Based Assay Protocol

human IBAT = target: T2, human IBAT (Homo sapiens, UniProt Q12908); assay: IBAT (h/m) assay: 3H-taurocholic acid uptake in human IBAT-overexpressing cells; type: cell-based; conditions: 0.25 μM 3H-taurocholic acid and 5 μM cold taurocholic acid, 20 minutes, highest test concentration 10 μM, read-out: hIBAT IC50
T2 construct: expressed in transfected cells; kept under Puromycin selection
T2 sequence (Q12908 1-348): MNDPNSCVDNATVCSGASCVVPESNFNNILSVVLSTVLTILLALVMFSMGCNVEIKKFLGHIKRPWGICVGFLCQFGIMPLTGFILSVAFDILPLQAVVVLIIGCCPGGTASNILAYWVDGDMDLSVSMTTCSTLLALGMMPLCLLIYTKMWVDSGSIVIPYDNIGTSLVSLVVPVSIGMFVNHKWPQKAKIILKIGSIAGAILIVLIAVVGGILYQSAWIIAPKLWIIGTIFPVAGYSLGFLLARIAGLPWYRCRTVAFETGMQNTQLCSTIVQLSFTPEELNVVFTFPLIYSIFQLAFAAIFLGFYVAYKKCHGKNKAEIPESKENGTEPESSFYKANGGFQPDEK
Experimental: IBAT (h/m) Assay Protocol
10,000 cells (Human or Mouse IBAT-overexpressing cells) were seeded in 96-wells plate (Corning CLS3809) in 200 μL MEM-alpha medium (Gibco 12571-063) supplemented with 10% FBS (Gibco 10438026) containing Puromycin (Gibco A1113803) (10 μg/mL) and incubated at 37° C. in 5% CO2 for 48 hours. After incubation, media was decanted from the wells and cells were washed two times with 300 μL of basal MEM-alpha medium (FBS-free). After decanting basal MEM-alpha medium each time, plates were tapped against paper towel to ensure maximum removal of residual media. Test inhibitor dilutions (highest test concentration being 10 μM, 3-fold serial dilution, 10 points) prepared in DMSO (Sigma D2650) were added in incubation mix (maintaining 0.2% final DMSO concentration) containing 0.25 μM 3H-taurocholic acid (ARC ART-1368) and 5 μM of cold taurocholic acid (Sigma T4009). 50 μL of incubation mix containing test inhibitors was then added to the wells (in duplicate) and the plates were incubated for 20 minutes in a CO2 incubator at 37° C. After incubation, the reaction was stopped by keeping the plates on ice water mix for 2-3 minutes and then the incubation mix was aspirated completely from the wells. The wells were washed two times with 250 μL of chilled unlabelled 1 mM taurocholic acid dissolved in HEPES (Gibco 15630080)-buffered (10 mM) HBSS (Gibco 14175079) (pH 7.4). The plates were tapped against a paper towel after every wash to ensure maximum removal of blocking buffer.
100 μL of MicroScint-20 (PerkinElmer 6013621) was added to the wells and kept overnight at room temperature before reading the plates in TopCount NXT™ Microplate Scintillation and Luminescence Counter from PerkinElmer under 3H Test protocol (set at 120 seconds reading time per well).
as §1, §2

OATP KO mice = assay: Effect of LBAT selective compounds on serum bile acid levels in OATP KO mice; type: in vivo; conditions: male OATP KO mice; oral dosing at the indicated doses; FIGS. 1 to 4; n=4
Text: Effect of LBAT Selective Compounds on Serum Bile Acid Levels in OATP KO Mice
Male OATP KO mice (Oatp1a/1b cluster knockout mice, Taconic, USA) aged 8 to 9 weeks were used in the studies. After completion of quarantine and acclimatization period, animals were randomized based on body weight into experimental groups (n=4 mice in each). On the experimental day, a baseline blood sample was collected followed by oral dosing of vehicle (0.5% CMC, 0.1% Tween 80) or compound of Example 3, 6, 13 or 15 at the indicated doses. Blood samples were then collected at various time points after dose (indicated in each graph). Blood was allowed to clot, and serum was collected by centrifugation at 3000 g, 4° C. for 15 minutes and stored at −80° C. for further analysis. The total bile acid concentration in each serum sample was determined by using the CELL BIOLABS Total Bile Acids kit (STA631) according to manufacturer's instructions. Mean±SEM, n=4.

IC50 (human LBAT) [nM]	Papp A→B at 120 min, 10 µM [1] [×10⁻⁶ cm/s]	Papp B→A at 120 min, 10 µM [1] [×10⁻⁶ cm/s]	IC50 (human IBAT) [nM]	SMILES	Effect on serum bile acid levels (OATP KO mice)
2.6	11.3	8.9	> 10000	CCCCC1CN(c2ccc(F)cc2)c2cc(SCC)c(O/C=C/C(=O)O)cc2S(=O)(=O)C1 (racemic) [Example 7, (E)-3-((3-Butyl-7-(ethylthio)-5-(4-fluorophenyl)-1,1-dioxido-2,3,4,5-tetrahydro-1,5-benzothiazepin-8-yl)oxy)acrylic acid]	–
1.6	2.9	8.5	827	CCCCC1CN(c2ccc(F)cc2)c2cc(SC)c(O/C=C(\F)C(=O)O)cc2S(=O)(=O)C1 (racemic) [Example 10, (Z)-3-((3-butyl-5-(4-fluorophenyl)-7-(methylthio)-1,1-dioxido-2,3,4,5-tetrahydro-1,5-benzothiazepin-8-yl)oxy)-2-fluoroacrylic acid]	–
1.9	4.3	6.1	248	CCCCC1CN(c2ccc(F)cc2)c2cc(SC)c(O/C=C(\F)C(=O)O)cc2S(=O)(=O)N1C (racemic) [Example 19, (Z)-3-((3-butyl-5-(4-fluorophenyl)-2-methyl-7-(methylthio)-1,1-dioxido-2,3,4,5-tetrahydro-1,2,5-benzothiadiazepin-8-yl)oxy)-2-fluoroacrylic acid]	–
2.6	6.5	8.7	4100	CCCCC1CN(c2ccc(F)cc2)c2cc(SCC)c(O/C=C/C(=O)O)cc2S(=O)(=O)N1 (racemic) [Example 30, (E)-3-((3-butyl-7-(ethylthio)-5-(4-fluorophenyl)-1,1-dioxido-2,3,4,5-tetrahydro-1,2,5-benzothiadiazepin-8-yl)oxy)acrylic acid]	–
0.8	2.7	10.5	135	CCCCC1CN(c2ccc(F)cc2)c2cc(SC)c(O/C=C(\F)C(=O)O)cc2S(=O)(=O)N1C (single isomer, unassigned) [Example 20, (Z)-3-((3-butyl-5-(4-fluorophenyl)-2-methyl-7-(methylthio)-1,1-dioxido-2,3,4,5-tetrahydro-1,2,5-benzothiadiazepin-8-yl)oxy)-2-fluoroacrylic acid]	–

More lines, now with the values behind:

SMILES	IC50 (human LBAT) [nM]	Papp A→B at 120 min, 10 µM [1] [×10⁻⁶ cm/s]	Papp B→A at 120 min, 10 µM [1] [×10⁻⁶ cm/s]	IC50 (human IBAT) [nM]	Effect on serum bile acid levels (OATP KO mice)
CCCCC1CN(c2ccc(F)cc2)c2cc(SC)c(O/C=C/C(=O)O)cc2S(=O)(=O)N1 (racemic) [Example 1, (E)-3-((3-Butyl-5-(4-fluorophenyl)-7-(methylthio)-1,1-dioxido-2,3,4,5-tetrahydro-1,2,5-benzothiadiazepin-8-yl)oxy)acrylic acid]	1	7.3	17.2	1670	–
CCCCC1CN(c2ccc(F)cc2)c2cc(SCC)c(O/C=C(\F)C(=O)O)cc2S(=O)(=O)C1 (racemic) [Example 16, (Z)-3-((3-butyl-7-(ethylthio)-5-(4-fluorophenyl)-1,1-dioxido-2,3,4,5-tetrahydro-1,5-benzothiazepin-8-yl)oxy)-2-fluoroacrylic acid]	2.5	1	3.6	1380	–
CCCCC1CN(c2ccccc2)c2cc(SCC)c(O/C=C/C(=O)O)cc2S(=O)(=O)N1 (single isomer, unassigned) [Example 6, (E)-3-((3-butyl-7-(ethylthio)-1,1-dioxido-5-phenyl-2,3,4,5-tetrahydro-1,2,5-benzothiadiazepin-8-yl)oxy)acrylic acid]	129	–	–	> 10000	increased serum bile acid levels
CCCCC1CN(c2ccc(F)cc2)c2cc(SCC)c(O/C=C(\F)C(=O)O)cc2S(=O)(=O)C1 (single isomer, unassigned) [Example 18, (Z)-3-((3-butyl-7-(ethylthio)-5-(4-fluorophenyl)-1,1-dioxido-2,3,4,5-tetrahydro-1,5-benzothiazepin-8-yl)oxy)-2-fluoroacrylic acid]	2.6	1.1	3.1	647	–
CCCCC1CN(c2ccccc2)c2cc(SCC)c(O/C=C(\F)C(=O)O)cc2S(=O)(=O)N1C (single isomer, unassigned) [Example 25, (Z)-3-((3-butyl-7-(ethylthio)-2-methyl-1,1-dioxido-5-phenyl-2,3,4,5-tetrahydro-1,2,5-benzothiadiazepin-8-yl)oxy)-2-fluoroacrylic acid]	0.9	1.9	3.9	431	–

Source: patent US11572350B1, “Benzothia(di)azepine compounds and their use as bile acid modulators” (Albireo AB, priority 2020, dated 2023)
